Laboratory results as given in patent US20190135787A1, “PYRIMIDINE COMPOSITIONS, ULTRA-PURE COMPOSITIONS AND SALTS THEREOF, METHODS OF MAKING THE SAME, AND METHODS OF USING THE SAME FOR TREATING HISTAMINE H4 RECEPTOR (H4) MEDIATED DISEASES AND CONDITIONS” (Novartis AG, priority 2015, published 2019).

Experiments:
[1] = Salt screen: physical stability under accelerated aging conditions (HT-XRPD); assay type: physicochemical; details: 40° C., 75% RH, two days, code+number = crystalline salt form, 0 = crystalline counter ion itself
Procedure: XRPD patterns were obtained using the Crystallics T2 high-throughput XRPD set-up. The plates were mounted on a Bruker General Area Detector Diffraction System (GADDS) equipped with a VANTEC-500 gas area detector corrected for intensity and geometric variations. The calibration of the measurement accuracy (peaks position) was performed using NIST SRM1976 standard (Corundum).
Data collection was carried out at room temperature using monochromatic CuKα radiation in the 2θ region between 1.5° and 41.5°, which is the most distinctive part of the XRPD pattern. The diffraction pattern of each well was collected in two 20 ranges (1.5°≤2θ≤21.5° for the first frame, and 19.5°≤2θ≤41.5° for the second) with an exposure time of 90s for each frame. No background subtraction or curve smoothing was applied to the XRPD patterns.
Approximately 175 mg of N^4-(cyclopropylmethyl)-6-[(3R)-3-(methylamino)pyrrolidin-1-yl]pyrimidine-2,4-diamine in 1-Butanol and Dichloromethane were combined with a slight molar excess of either solid or liquid counter ion. Samples were incubated at RT. After 5 days the solids were collected, dried under vacuum and analyzed by HT-XRPD (XRPD 1).
Subsequently, the solids were exposed to accelerated aging conditions (40° C., 75% RH) for two days and re-analyzed by HT-XRPD (XRPD 2). Crystalline salts (polymorphs) are indicated with the abbreviated counter ion code and a number (1, 2, etc.). The number zero (0) indicates the crystalline counter ion itself.

[2] = test system: adult subjects with moderate to severe atopic dermatitis; experiment: Phase 2a study in moderate to severe atopic dermatitis; assay type: in vivo, human; details: 8 weeks
Procedure: Following the phase 1 trials, a phase 2a trial was conducted to evaluate the efficacy of 8 weeks of treatment with 30 mg ZPL-389 administered once daily in adult subject with moderate to severe atopic dermatitis. The study was also designed to assess the safety and tolerability of ZPL-389 in adult subjects with moderate to severe atopic dermatitis.
This study was a randomized, double blind, placebo controlled, parallel group study of subjects having a pruritus Numerical Rating Scale (NRS) of ≥5 (0-10 scale), an Investigator's Global Assessment (IGA)≥3 (0-3 scale), and moderate-severe AD Eczema Area and Severity Index (EAST)≥12 and ≤48 (0-72 scale). In addition, subjective patient reported outcome instruments include: Ziarco Itch Diary (Electronic) Pruritus; 5D Pruritus Scale; Dermatology Life Quality Index (DLQI); and Patient Global Impression of Change (PGIG).
Each subject (aged 18-65 years) had one or more screening visits to confirm suitability to enter the study. 98 subjects with moderate to severe atopic dermatitis were randomized 2:1 to receive orally either 30 mg ZPL-389 or placebo once daily for eight weeks (56 days).
Efficacy endpoints for the trial include the following: • change from baseline in NRS for pruritus (worst itch) over 24 hours; • change from baseline in daytime NRS for pruritus (worst itch); • change from baseline in night time NRS for pruritus (worst itch); • change from baseline in NRS for sleep disturbance; • change from baseline in duration of itching; • change from baseline in verbal rating score for pruritus; • change from baseline in EASI score; • change from baseline in SCORAD score; • IGA score; • amount of rescue medication use; and/or • PGIC.

[3] = Phase 1 trials, single and multiple ascending doses; assay type: in vivo, human
Procedure: In phase 1 trials, 62 subjects were treated with ZPL-389.

mild asthmatics = details: 36 mg, two single oral doses 12 hours apart; cited from earlier work
[4] = Dynamic vapor sorption (DVS); assay type: physicochemical; details: 25° C.
Procedure: Moisture sorption isotherms were collected on a DVS-1 system from Surface Measurement Systems (London, UK). Typical sample size is between 5 and 10 mg of solid material. The relative humidity was cycled between 40% to 0% (desorption), up to 95% (sorption), back to 0% RH (desorption) and up to 95% RH (sorption) in steps of 10% at a constant temperature of 25° C. with an initial stabilizing step at 40% RH for 6 hours.

Molecule	XRPD2: solid form after accelerated aging ([1]; solid from 1-butanol)	XRPD2: solid form after accelerated aging ([1]; solid from dichloromethane)	further results
Ethanesulfonic acid	Amorphous	Amorphous	–
Citric acid	Amorphous	Amorphous	–
Br [Hydrobromic acid]	Amorphous	Amorphous	–
O=C(O)[C@H](O)[C@@H](O)C(=O)O [(+)-L-Tartaric acid]	Amorphous	Amorphous	–
CCCCCCCCCCCCCCCCCC(=O)O [Stearic acid]	Ste0 + Ste1	Ste0 + Ste1	–
O=C(O)[C@H](O)[C@@H](O)[C@H](O)[C@H](O)CO [Gluconic acid]	Amorphous	Amorphous	–
O=C(O)c1ccccc1O [Salicylic acid]	Sal1 plus	Amorphous	–
O=C[C@H](O)[C@@H](O)[C@H](O)[C@H](O)C(=O)O [D-Glucuronic acid]	Amorphous	Amorphous	–
CN[C@@H]1CCN(c2cc(NCC3CC3)nc(N)n2)C1 [ZPL-389, N^4-(cyclopropylmethyl)-6-[(3R)-3-(methylamino)pyrrolidin-1-yl]pyrimidine-2,4-diamine]	–	–	Treatment Emergent Adverse Events (TEAE) vs placebo ([2]; 30 mg once daily): no differences; rescue medication use vs placebo ([2]; 30 mg once daily): lower; tolerability / safety profile ([2]; 30 mg once daily, comparable to placebo): well tolerated; pruritus ([2]; 30 mg once daily, statistically significant compared to baseline): markedly reduced; IGA reduction ([2]; 30 mg orally once daily, placebo 25%): 36%; pharmacokinetics, dose dependence ([3]; phase 1 trials): dose-proportional pharmacokinetics; majority of observed adverse events ([3]; single doses 0.01-48 mg, 5, 15 and 50 mg once daily for 14 days): mild, transient, and non-dose related; tolerability ([3]; single doses 0.01-48 mg, 5, 15 and 50 mg once daily for 14 days, 62 subjects): safely tolerated; efficacy in mild asthma (mild asthmatics): no efficacy was observed
O=S(=O)(O)c1ccc2ccccc2c1 [Naphtalene-2-sulfonic acid]	Nap1 + Nap0	Amorphous	–
N[C@@H](CC(=O)O)C(=O)O [L-Aspartic acid]	Asp0	Amorphous	–
Oxalic acid	Oxa3	Oxa3	–
O=C(O)c1cc(O)ccc1O [Gentisic acid]	Gen2	Gen2	–
O=S(=O)(O)CCS(=O)(=O)O [Ethane-1,2-disulfonic acid]	Eds1 + Eds2	Eds1	–
Lactic acid	Amorphous	Amorphous	–
O=S(=O)(O)O [Sulfuric acid]	Amorphous	Amorphous	–

Molecule	XRPD2: solid form after accelerated aging ([1]; solid from 1-butanol)	XRPD2: solid form after accelerated aging ([1]; solid from dichloromethane)	further results
CN[C@@H]1CCN(c2cc(NCC3CC3)nc(N)n2)C1.O.O.O=C(O)C(O)C(O)C(=O)O [Example 4, N^4-(cyclopropylmethyl)-6-[(3R)-3-(methylamino)pyrrolidin-1-yl]pyrimidine-2,4-diamine tartrate dihydrate]	–	–	total mass uptake ([4]; 20-30% RH): 6.9%; RH at which the dehydration step occurs during desorption [4]: below 10 % RH; water uptake (mass uptake) ([4]; between 0-20% RH): 1.9%; weight ([4]; between 30-90% RH): remains stable
Benzenesulfonic acid	Amorphous	Amorphous	–
O=C(O)C(O)c1ccccc1 (racemic) [DL-Mandelic acid]	Amorphous	Amorphous	–
O=C(O)CCCC(=O)O [Glutaric acid]	Glut1	Glut1	–
(−)-L-Malic acid	Amorphous	Amorphous	–
CC(=O)Nc1ccc(C(=O)O)cc1 [4-acetamido-Benzoic acid]	ABen1 + ABen0	ABen1 + ABen0	–
N[C@@H](CCC(=O)O)C(=O)O [Glutamic acid]	Gltm0	Amorphous	–
O=C(O)CNC(=O)c1ccccc1 [Hippuric acid]	Amorphous	Amorphous	–
O=P(O)(O)O [Phosphoric acid]	Pho2 plus	Pho3	–
Benzoic acid	Ben1 + Ben2 plus	Ben1 + Ben2 plus	–
Cl [Hydrochloric acid]	Amorphous	Amorphous	–
Maleic acid	Amorphous	Amorphous	–
CS(=O)(=O)O [Methanesulfonic acid]	Amorphous	Amorphous	–
CC(=O)O [Acetic acid]	Amorphous	Amorphous	–
Fumaric acid	Amorphous	Fum0 + Fum3	–
